Test [1] has as its system LMCD1 transfectants in SK-Hep1 cells. The test can be described thus: Lamellipodia formation (Arp3 staining, cell morphology) in LMCD1 transfectants. Type of test: cell-based, human. The conditions noted are these: LMCD1-E135K and LMCD1-K237R cells. The text has this: Coverslips were mounted on slides using […] mounting medium with DAPI (Vector Laboratories).
Test [2] has the same test system. The experiment in a line: Wound healing assay in LMCD1 stable transfectants of SK-Hep1 cells. The following applies: dose dependent.
Procedure: To test the hypothesis that LMCD1 mutants play a role in cell migration regulation, three different cell migration assays for reflecting alteration of directed migration, random migration, and chemotaxis were performed. Directed migration of these SK-Hep1 transfectants was inspected by wound healing assay. For the wound healing assay, cells were seeded in a 6-well plate at a confluent density and cultured overnight to grow into a monolayer. The culture was scratched with a p200 pipette tip, and the wound was allowed to close for 20 hours. The average reduction of distance between two wound edges was calculated to evaluate the rate of wound closure. […] Cells were photographed immediately after wounding (FIG. 7a upper) and 2 hours after wounding (FIG. 7a lower), with arrows indicating protrusion of cells at the wound edge. […] Images were obtained using an Olympus BX51 fluorescence microscope or a PerkinElmer Ultra View confocal microscope (PerkinElmer Life Sciences).
The bar graph to the right of the images in FIG. 4c provides quantification of average migration results, normalized to the mock cells (±SEM).
In test [3] the test system is PLC/PRF/5 cells. The experiment in a line: Trans-well migration assay in PLC/PRF/5 cells. In kind it is cell-based, human. The conditions noted are these: 10 nM 17β-estradiol, 24 hours. How it is done: For trans-well assay, 1×10^4 cells resuspended in serum-free medium were seeded into the upper chamber of an insert with an 8.0-μm pore size of polycarbonate membrane (BD Biosciences) and then placed into the bottom chamber containing 10% FBS as chemoattractant. Cells were allowed to migrate for 24 hours followed by methanol fixation and Giemsa staining (MERCK Darmstadt, Germany). Un-migrated cells on the membrane apical side were removed. Migrated cells were photographed with a phase contrast microscope and the number was counted by using Image-Pro Plus software. All experiments were performed in triplicates. […] Images in the top panel of FIG. 3e are representative of three independent experiments performed in triplicate. Quantification of average migrated cell number is shown in bar graphs below the images (±SEM).
(§1) Trans-well migration assays were performed as in Example 3. Expression of LMCD1-K237R in PLC/PRF/5 cells (1×10^5 cells) was induced by exposure to 10 nM 17β-estradiol. Results are provided in FIG. 4d, with some cells also being treated with the indicated shRNA. Images in FIG. 4d are representative of migration results from three independent experiments, with (+E2) and without (−E2) estradiol treatment. The migration results are quantified by bar graph in FIG. 4e (±SEM). […]

Test [4] deals with LMCD1-K237R. The experiment in a line: LMCD1-K237R expression in PLC/PRF/5 cells by reverse-transcription PCR. In kind it is cell-based, human. The following applies: 10 nM 17β-estradiol. On the procedure:
Five independent pLKO.1 lentiviral-based shRNA clones targeting human LMCD1 (NM_014583) from The RNAi Consortium (TRC) library were tested. […] Human shRNA for RAC1 (shRac1) was also obtained from TRC library with number TRCN0000004870: 5′-[…]-3′. pLKO.1-shLuc was used as control. To generate shRNA lentiviral particles, HEK293T cells were co-transfected with a plasmid mixture (pLKO.1-puro-shRNA, pCMVΔR8.91 packaging plasmid, and pMD.G envelope plasmid) by calcium phosphate protocol. Cell medium containing viral particles was collected three times at 24-hour intervals after transfection. The virus-containing medium was aliquoted and used to infect cells or stored at −80° C. until use. Ninety-six hours after infection, cells were subjected to further experimental assays or harvested for LMCD1 or Rac1 gene expression analysis by RT-PCR or Western blotting.
as §1

Test [5] concerns Rac1 interaction with Rac1-specific GEFs TrioN, GEF-H1 and Tiam1. The following applies: cited from earlier work.

Turning to `CCN(CC)CCCC(C)Nc1nc(C)cc(Nc2ccc3nc(C)cc(N)c3c2)n1` (centres unmarked) [NSC23766], the lamellipodia extension entry in test [1] is given as “inhibited lamellipodia extension”. Also, the “cell mobility (wound closure)” value in test [2] is “decreased”.
In the case of `C[C@]12CC[C@@H]3c4ccc(O)cc4CC[C@H]3[C@@H]1CC[C@@H]2O` [estrogen, 17β-estradiol], in test [3], the cell migration entry is “up-regulate”. For the same compound, the “expression of LMCD1-K237R” value in test [4] is listed as “up-regulate”.
For the compound “Rac1 Inhibitor W56: peptide comprising residues 45-60 of the guanine nucleotide exchange factor (GEF) recognition/activation site of Rac1 (MVDGKPVNLGLWDTAG; UniProt P63000 45-60, looked up, fragment)”, in test [5], the “inhibition of Rac1 interaction with Rac1-specific GEFs TrioN, GEF-H1 and Tiam1” value is “selectively inhibits”.

These data come from patent US20130239239A1, “LMCD1 CANCER MARKERS AND METHODS FOR THEIR USE” (Academia Sinica, priority 2012, published 2013).
